Measurements reported in patent publication US20190327965A1, “AGENTS AND METHODS FOR TREATMENT OF PATHOGENS” (Hexima Limited, priority 2014, published 2019).
Read-outs that look alike come from different tables or passages of the source. Bridge positions count the residues as written; N and C are the ends. Peptide text beside a SMILES is read from it.

Legend:
[1] = tested on: Fusarium oxysporum f. sp. vasinfectum (Fov); type: cell-based; set-up: relative uptake of SYTOX green: reference not given here
[2] = tested on: Fusarium graminearum (Fgr); type: cell-based; set-up: relative uptake of SYTOX green: reference not given here
Saccharomyces cerevisiae = experiment: Growth inhibition by hairpin peptide alone, Saccharomyces cerevisiae; type: cell-based; conditions: hairpin peptide on its own
Source text: Some α-hairpinin and β-hairpin peptides show efficacy on their own against pathogens at a concentration higher than the concentration used in a combination with a plant defensin.

[3] = tested on: Colletotrichum graminicola

Compound	Permeability index [1]	relative uptake of SYTOX green [1]	Permeability index [2]	relative uptake of SYTOX green [2]	IC50 (Saccharomyces cerevisiae)	further results
HXP4: synthetic (artificial) defensin variant, SEQ ID NO:8 (RECKTESHRFKGPCITKPPCRKACISEKFTDGHCSKILRRCLCTKPC; HXP4 protein)	0.7	220	1.3	400		
HXL007: permeabilizing defensin, mature protein SEQ ID NO:28 (RTCESLADTYRGPCFTDGSCDDHCKNKEHLISGRCRNDFRCWCTRNC; HXL007 Cyamopsis tetragonoloba)	1.2	350				
HXL013: Class I permeabilizing defensin, mature protein SEQ ID NO:30 (KDCLTRRHGFQGRCLFDRQCAHVCRSDGFIGGQCRGPLRKCFCSRPC; HXL013 Glycine max)			1.4	450		
CC(C)[C@@H]1NC(=O)[C@@H]2CSSC[C@H](NC(=O)[C@H](CCC(N)=O)NC(=O)[C@H](CCCCN)NC(=O)[C@H](CCC(N)=O)NC(=O)[C@@H](NC(=O)[C@H](CCCNC(=N)N)NC(=O)[C@@H](N)CC(=O)O)CSSC[C@@H](C(=O)N[C@@H](CCCNC(=N)N)C(=O)N[C@@H](CCCNC(=N)N)C(=O)NCC(=O)N[C@@H](CCCNC(=N)N)C(=O)NCC(=O)N[C@@H](CO)C(=O)O)NC(=O)[C@H](CC(=O)O)NC(=O)[C@H](CCCNC(=N)N)NC1=O)C(=O)N[C@@H](CCC(N)=O)C(=O)N[C@@H](Cc1c[nH]cn1)C(=O)N[C@@H](Cc1ccc(O)cc1)C(=O)N[C@@H](CO)C(=O)N[C@@H](CC(=O)O)C(=O)N[C@@H](Cc1c[nH]c3ccccc13)C(=O)N[C@@H](CC(=O)O)C(=O)N[C@@H](CCCCN)C(=O)N[C@@H](CCCCN)C(=O)N[C@@H](CCC(N)=O)C(=O)N[C@@H](CCC(N)=O)C(=O)N2 [Sbi_HPN_104I] (H-DRCQKQCQHYSDWDKKQQCVRDCRRGRGS-OH; disulfide 3-23, 7-19 (inferred); N-terminus and C-terminus assumed)					> 20 µM	
C[C@@H](O)[C@@H]1NC(=O)[C@H](CCC(N)=O)NC(=O)[C@@H]2CSSC[C@H](NC(=O)[C@H](CCC(N)=O)NC(=O)[C@H](CCCNC(=N)N)NC(=O)[C@H](CCC(N)=O)NC(=O)[C@H](CCCNC(=N)N)NC(=O)[C@H](CCC(=O)O)NC(=O)[C@@H]3CCCN3C(=O)[C@H](CO)NC(=O)[C@H](CCC(N)=O)NC(=O)[C@H](CCC(=O)O)NC(=O)[C@H](CCC(N)=O)NC1=O)C(=O)N[C@@H](CCC(N)=O)C(=O)N[C@@H](CCC(N)=O)C(=O)N[C@@H](CCCNC(=N)N)C(=O)N[C@H](C(=O)N[C@@H](CCC(=O)O)C(=O)N[C@@H](CCCNC(=N)N)C(=O)N[C@@H](CCC(N)=O)C(=O)N[C@@H](Cc1ccc(O)cc1)C(=O)N[C@@H](CCCCN)C(=O)N[C@@H](CCC(=O)O)C(=O)O)CSSC[C@H](NC(=O)[C@H](CCCNC(=N)N)NC(=O)[C@H](Cc1c[nH]cn1)NC(=O)[C@H](Cc1ccc(O)cc1)NC(=O)[C@H](CCC(N)=O)NC(=O)[C@H](CCC(N)=O)NC(=O)[C@H](CCC(N)=O)NC(=O)[C@@H]1CCCN1C(=O)[C@@H](N)CC(=O)O)C(=O)N[C@@H](CCC(N)=O)C(=O)N[C@@H](CCCNC(=N)N)C(=O)N[C@@H](CCCNC(=N)N)C(=O)N2 [Cil_HPN_14F] (H-DPQQQYHRCQRRCQTQEQSPERQRQCQQRCERQYKE-OH; disulfide 9-30, 13-26 (inferred); N-terminus and C-terminus assumed)					12 µM	
HXL004: Class I permeabilizing defensin, mature protein SEQ ID NO:27 (RTCESQSHRFKGLCFSRSNCASVCHTEGFNGGHCRGFRRRCFCTRHC; HXL004 Nicotiana benthamiana)			1.6	500		
CSCC[C@@H]1NC(=O)[C@@H]2CSSC[C@H](NC(=O)[C@H](CCC(=O)O)NC(=O)[C@H](CCCNC(=N)N)NC(=O)[C@H](CCCNC(=N)N)NC(=O)[C@@H](NC(=O)[C@H](CCC(=O)O)NC(=O)[C@H](CCCCN)NC(=O)CNC(=O)CNC(=O)CNC(=O)CNC(=O)[C@@H](N)Cc3c[nH]cn3)CSSC[C@@H](C(=O)N[C@@H](CCC(=O)O)C(=O)N[C@@H](Cc3c[nH]c4ccccc34)C(=O)N[C@@H](CCCNC(=N)N)C(=O)N[C@@H](CCCNC(=N)N)C(=O)N[C@@H](Cc3c[nH]cn3)C(=O)N[C@@H](CCC(=O)O)C(=O)O)NC(=O)[C@H](CCC(N)=O)NC(=O)[C@H](CCCNC(=N)N)NC1=O)C(=O)N[C@@H](CCCNC(=N)N)C(=O)NCC(=O)N[C@@H](Cc1ccc(O)cc1)C(=O)N[C@@H](CCCNC(=N)N)C(=O)N[C@@H](CC(=O)O)C(=O)N[C@@H](CCC(=O)O)C(=O)N1CCC[C@H]1C(=O)N[C@@H](Cc1c[nH]c3ccccc13)C(=O)N[C@@H](CCCNC(=N)N)C(=O)N[C@@H](CCCCN)C(=O)N[C@@H](CCC(N)=O)C(=O)N[C@@H](CCC(=O)O)C(=O)N2 [Osa_HPN_86B] (H-HGGGGKECRRECRGYRDEPWRKQECMRQCEWRRHE-OH; disulfide 8-29, 12-25 (inferred); N-terminus and C-terminus assumed)					8 µM	IC50 (Candida albicans): 9 µM; IC50 [3]: 13 µM; IC50 (Fusarium graminearum): 18 µM
EcAMP1: α-hairpinin peptide, SEQ ID NO:36, produced recombinantly in E. coli (GSGRGSCRSQCMRRHEDEPWRVQECVSQCRRRRGGGD; EcAMP1 Echinochloa crus-galli)					8 µM	IC50 (Candida albicans; read-out: IC50 C. alb): 8 µM; IC50 ([3]; read-out: IC50 Cgr): 20 µM; IC50 (Fusarium graminearum; read-out: IC50 Fgr): 7 µM
RsAFP2: defensin compared in the Fgr permeabilization assay (QKLCQRPSGTWSGVCGNNNACKNQCIRLEKARHGSCNYVFPAHKCICYFPC; UniProt P30230 30-80, looked up) [reference compound]			0.3	100		
HXL002: permeabilizing defensin, mature protein SEQ ID NO:26 (RDCLSQSHKFKGACLSSSNCAAVCRTENFPDGECHTHNFARKCFCKRAC; HXL002 Triticum aestivum)	0.9	260	1.0	320		
HXL001: Class I permeabilizing defensin, mature protein SEQ ID NO:25 (RHCLSQSHRFKGLCMSSNNCANVCQTENFPGGECKAEGATRKCFCKKIC; HXL001 Zea Mays)			0.9	300		
Hordothionin [reference compound]			0.4	120		
NaD1: Class II Solanaceous defensin from flowers of ornamental tobacco Nicotiana alata (Q8GTM0) (RECKTESNTFPGICITKPPCRKACISEKFTDGHCSKILRRCLCTKPC; UniProt Q8GTM0 26-72, looked up)	1.0	300	1.0	320		
CSCC[C@@H]1NC(=O)[C@H](CC(C)C)NC(=O)[C@@H]2CSSC[C@H](NC(=O)[C@H](CCCNC(=N)N)NC(=O)[C@H](CCC(=O)O)NC(=O)[C@H](CCCNC(=N)N)NC(=O)[C@@H](NC(=O)[C@H](CCCCN)NC(=O)[C@H](CCCNC(=N)N)NC(=O)[C@H](CCCNC(=N)N)NC(=O)CNC(=O)[C@H](CCC(=O)O)NC(=O)CN)CSSC[C@@H](C(=O)N[C@@H](CCCCN)C(=O)N[C@@H](CO)C(=O)N[C@@H](CCCNC(=N)N)C(=O)N[C@@H](CCC(=O)O)C(=O)N[C@@H](CCC(N)=O)C(=O)N[C@@H](CCC(=O)O)C(=O)O)NC(=O)[C@H](CC(=O)O)NC1=O)C(=O)N[C@@H](CCC(=O)O)C(=O)N[C@@H](CCCNC(=N)N)C(=O)N[C@@H](Cc1c[nH]cn1)C(=O)N[C@@H](Cc1c[nH]cn1)C(=O)N[C@@H](CCCNC(=N)N)C(=O)NCC(=O)NCC(=O)N[C@@H](CC(=O)O)C(=O)N[C@@H](Cc1c[nH]c3ccccc13)C(=O)N[C@@H](Cc1c[nH]c3ccccc13)C(=O)N[C@@H](CCC(=O)O)C(=O)N[C@@H](CCCCN)C(=O)N[C@@H](CCC(N)=O)C(=O)N[C@@H](CCCNC(=N)N)C(=O)N2 [Sbi_HPN_104C] (H-GEGRRKCRERCERHHRGGDWWEKQRCLMDCKSREQE-OH; disulfide 7-30, 11-26 (inferred); N-terminus and C-terminus assumed)					> 20 µM	IC50 (Candida albicans): 7 µM; IC50 [3]: 16 µM; IC50 (Fusarium graminearum): 7 µM
HXL008: Class I permeabilizing defensin, mature protein SEQ ID NO:29 (KVCTKPSKFFKGLCGTDGACTTACRKEGLHSGYCQLKGFLNSVCVCRKHC; HXL008 Picramnia pentandra)	0.8	225	0.9	300		
CC[C@H](C)[C@@H]1NC(=O)[C@H](CCCCN)NC(=O)[C@H]([C@@H](C)CC)NC(=O)[C@H](CCC(N)=O)NC(=O)[C@H](CCCNC(=N)N)NC(=O)[C@@H](NC(=O)[C@@H](NC(=O)[C@H](CO)NC(=O)[C@@H](N)CCCNC(=N)N)C(C)C)CSSC[C@@H](C(=O)N[C@H](C(=O)N[C@@H](CC(N)=O)C(=O)N[C@@H](CCCNC(=N)N)C(=O)N2CCC[C@H]2C(=O)N[C@@H](Cc2ccc(O)cc2)C(=O)O)[C@@H](C)O)NC(=O)[C@H](CCCCN)NC(=O)[C@H](Cc2ccc(O)cc2)NC(=O)[C@H](Cc2ccc(O)cc2)NC(=O)[C@@H]2CSSC[C@H](NC1=O)C(=O)N[C@@H](CCCNC(=N)N)C(=O)N[C@@H](CCCNC(=N)N)C(=O)N[C@@H](CCCNC(=N)N)C(=O)NCC(=O)NCC(=O)N2 [Androctonin] (H-RSVCRQIKICRRRGGCYYKCTNRPY-OH; disulfide 4-20, 10-16 (inferred); N-terminus and C-terminus assumed)						IC50 (Candida albicans): 7 µM; IC50 [3]: 13 µM; IC50 (Fusarium graminearum): 7 µM; IC50 (Trichophyton rubrum): 1 µM
